Laboratory results reported in patent US20060286140A1, “Implants with attached silylated therapeutic agents” (priority 2003, published 2006).

Experiments:
S. aureus (ATCC 25923) = assay: Disc diffusion assay; type: cell-based; settings: 1 μg/mL solution, 20 μL on six mm filter disk, overnight
Protocol: Disc Diffusion Assay. Six mm sterile filter disks can be directly placed onto a full-grown lawn of S. aureus (ATCC 25923) culture, and known volumes (20 μL) and dilutions of the eluted antibiotic can be pipetted onto the disc. After incubation overnight, the area of the resultant adjacent clear zone that is devoid of bacterial growth can be measured and compared with the area cleared by a standard series of known doses of rifampin. A 1 μg/mL solution of rifampin should give a clear zone of 4-5 cm. The lower limit of sensitivity of this assay is expected to be in the 10 ng/mL range.

E. faecalis = settings: in vitro; cited from earlier work
S. aureus = settings: in vitro, most strains including S. aureus; cited from earlier work
E. faecium = settings: in vitro; cited from earlier work

| SMILES | clear zone (S. aureus (ATCC 25923)) | activity relative to linezolid (E. faecalis) | activity relative to quinupristin-dalfopristin (E. faecalis) | MIC90 (S. aureus) | activity relative to linezolid (E. faecium) | activity relative to quinupristin-dalfopristin (E. faecium) |
| --- | --- | --- | --- | --- | --- | --- |
| CO[C@H]1/C=C/O[C@@]2(C)Oc3c(C)c(O)c4c(O)c(c(/C=N/N5CCN(C)CC5)c(O)c4c3C2=O)NC(=O)/C(C)=C\C=C\[C@H](C)[C@H](O)[C@@H](C)[C@@H](O)[C@@H](C)[C@H](OC(C)=O)[C@@H]1C (relative stereo) [rifampin, (2S*,12Z,14E,16R*,17R*,18S*,19S*,20S*,21R*,22S*,23R*,24E)-5,6,9,17,19,21-hexahydroxy-23-methoxy-2,4,12,16,18,20,22-heptamethyl-8-[N-(4-methyl-1-piperazinyl)formimidoyl]-2,7-(epoxypentadeca[1,11,13]trienimino)naphtha[2,1-b]furan-1,11-deone 21-acetate] | 4-5 cm |  |  |  |  |  |
| CN(C)c1cc(NC(=O)CNC(C)(C)C)c(O)c2c1C[C@H]1C[C@H]3[C@H](N(C)C)C(O)=C(C(N)=O)C(=O)[C@@]3(O)C(O)=C1C2=O [tigecyclin] |  | ~8 fold | 32 fold | less than 0.25 mg/mL | ~8 fold | 32 fold |
